Results from ChEMBL document CHEMBL3600287, “New heterocyclic compounds: Synthesis and antitrypanosomal properties” (Bioorg Med Chem, 2015).

Key:
Mus musculus [1] = assay: Toxicity against Swiss mouse infected with Trypanosoma brucei brucei CMP assessed as animal death at 50 umol/kg, ip administered as single dose; format: organism-based; details: in vivo
[2] = system: Trypanosoma brucei brucei; assay: Antitrypanosomal activity against Trypanosoma brucei brucei CMP infected in Swiss mouse assessed as parasite number level ul of blood at 50 umol/kg, ip administered as single dose measured on day 2; format: functional
[3] = system: Trypanosoma brucei brucei; assay: Antitrypanosomal activity against Trypanosoma brucei brucei CMP infected in Swiss mouse assessed as mean survival time at 50 umol/kg, ip administered as single dose; format: functional
Mus musculus [4] = assay: Toxicity against Swiss mouse infected with Trypanosoma brucei brucei CMP assessed as animal death at 100 umol/kg, ip administered as single dose; format: organism-based; details: in vivo
[5] = system: Trypanosoma brucei brucei; assay: Antitrypanosomal activity against Trypanosoma brucei brucei CMP infected in Swiss mouse assessed as parasite number level ul of blood at 50 umol/kg, ip administered as single dose measured on day 3; format: functional
[6] = system: Trypanosoma brucei brucei; assay: Antitrypanosomal activity against Trypanosoma brucei brucei CMP infected in Swiss mouse assessed as parasite number level ul of blood at 100 umol/kg, ip administered as single dose measured on day 4; format: functional
[7] = system: Trypanosoma brucei brucei; assay: Antitrypanosomal activity against Trypanosoma brucei brucei CMP infected in Swiss mouse assessed as parasite number level ul of blood at 100 umol/kg, ip administered as single dose measured on day 2; format: functional
[8] = Cytotoxicity against mouse 3T6 cells assessed as inhibition of cell proliferation after 48 hrs by MTT assay; format: cell-based
[9] = system: Trypanosoma brucei brucei; assay: Antitrypanosomal activity against Trypanosoma brucei brucei CMP infected in Swiss mouse assessed as parasite number level ul of blood at 100 umol/kg, ip administered as single dose measured on day 3; format: functional
[10] = system: Trypanosoma brucei brucei; assay: Antitrypanosomal activity against Trypanosoma brucei brucei CMP infected in Swiss mouse assessed as cure rate at 50 umol/kg, ip administered as single dose; format: functional
[11] = system: Trypanosoma brucei brucei; assay: Antitrypanosomal activity against Trypanosoma brucei brucei CMP infected in Swiss mouse assessed as cure rate at 100 umol/kg, ip administered as single dose; format: functional
[12] = Selectivity index, ratio of CC50 for mouse 3T6 cells to IC50 for Trypanosoma brucei gambiense strain FeoITMAP/1893; format: functional
[13] = system: Trypanosoma brucei brucei; assay: Antitrypanosomal activity against Trypanosoma brucei brucei CMP infected in Swiss mouse assessed as mean survival time at 100 umol/kg, ip administered as single dose; format: functional
[14] = system: Trypanosoma brucei gambiense; assay: Antitrypanosomal activity against Trypanosoma brucei gambiense FeoITMAP/1893 assessed as inhibition of parasite growth after 72 hrs by resazurin dye based microplate reader analysis; format: functional, organism-based; details: FeoITMAP/1893, 72 h
[15] = system: Trypanosoma brucei brucei; assay: Antitrypanosomal activity against Trypanosoma brucei brucei CMP infected in Swiss mouse assessed as parasite number level ul of blood at 50 umol/kg, ip administered as single dose measured on day 4; format: functional
[16] = Cytotoxicity against monkey LLC-MK2 cells; format: cell-based, Macaca mulatta; details: rhesus monkey
[17] = system: Trypanosoma brucei brucei; assay: Antitrypanosomal activity against Trypanosoma brucei brucei CMP infected in Swiss mouse assessed as parasite number level ul of blood at 100 umol/kg, ip administered as single dose measured on day 30; format: functional

Row | SMILES | Activity (Mus musculus [4]) | Activity [6] [µL⁻¹] | Activity [7] [µL⁻¹] | CC50 at 48 h [8] [µM] | Activity [9] [µL⁻¹] | Activity [11] [%] | Ratio CC50/IC50 [12] | MST [13] [days] | IC50 [14] [µM] | also measured
1 | CCOC(=O)c1cn(C2CC2)c2cc(N3CCN(Cc4ccccc4)CC3)c(F)cc2c1=O | Non-toxic | 0 | 0 | > 30 | 0 | 0 | 5 | 8.2 | 6.03 | Activity (Mus musculus [1]): Non-toxic; Activity [2]: 0 µL⁻¹; MST [3]: 6.1 days; Activity [5]: 0 µL⁻¹; Activity [10]: 0%; Activity [15]: 7 µL⁻¹
2 | CCOC(=O)c1cn(C2CC2)c2cc(N3CCN(CC45CC6CC(CC(C6)C4)C5)CC3)c(F)cc2c1=O |  |  |  | 27.8 |  |  | 1.2 |  | 23.1 | 
3 | Fc1ccc2[nH]c(-c3ccc(Nc4ccnc5cc(Cl)ccc45)cc3)nc2c1 | Non-toxic | 31590 | 0 |  | 97 | 0 | 5.3 | 1.2 | 1.98 | Activity (Mus musculus [1]): Non-toxic; Activity [2]: 13.7 µL⁻¹; MST [3]: 1.1 days; Activity [5]: 117 µL⁻¹; CC50 [16]: 10.6 µM; Activity [10]: 0%; Activity [15]: 28317 µL⁻¹
4 | Clc1ccc2c(Nc3ccc(-c4nc5ccccc5[nH]4)cc3)ccnc2c1 |  |  |  |  |  |  | 4.1 |  | 3.79 | CC50 [16]: 15.5 µM
5 | N=C(N)c1ccc(OCCCCCOc2ccc(C(=N)N)cc2)cc1.O=S(=O)(O)CCO | Non-toxic | 0 |  |  | 0 | 100 |  | >30 |  | Activity [17]: 0 µL⁻¹
6 | CCN(CC)CCCC(C)Nc1ccnc2cc(Cl)ccc12.O=P(O)(O)O.O=P(O)(O)O (stereo not drawn) [CHLOROQUINE PHOSPHATE] | Non-toxic | 42607 | 23.7 |  | 498 | 0 |  | 0 |  | 
7 | CCOC(=O)c1cn(C2CC2)c2cc(N3CCNCC3)c(F)cc2c1=O [CIPROFLOXACIN ETHYL ESTER] |  |  |  | > 30 |  |  | 1.2 |  | 26 | 
8 | O=C(O)c1cn(C2CC2)c2cc(N3CCNCC3)c(F)cc2c1=O [CIPROFLOXACIN] |  |  |  |  |  |  |  |  | 52 | 
9 | N=C(N)c1ccc(OCCCCCOc2ccc(C(=N)N)cc2)cc1 [PENTAMIDINE] |  |  |  |  |  |  |  |  | 0.0049 | 
